In US7037939B2, “Compound and derivative of gabapentin” (Industrial Technology Research Institue, priority 2002, dated 2006):

Legend:
Caco-2 cell = assay: Caco-2 monolayer cell transmission rate (in vitro intestinal absorption model); format: in vitro ADME, human
Source text: The common use of the activity selection model for the in vitro intestinal absorption comprises: (1) Carcinoms (Caco-2); (2) Using Chamber; (3) Everted Gut Sac. Basically, there is no difference for those three drug-activity-selection models when they are used for evaluating the activity selection. However, in terms of the cell source from human, a cell line is predominant. Moreover, with the cellular metabolism being similar to human intestines, Caco-2 becomes an excellent tool in the study of intestine absorption. Therefore, in the comparison of the in vitro transmission rate between gabapentin and gabapentin derivatives, the Caco-2 system is still the favorable model.
The research for studying gabapentin and the derivatives thereof in the present invention includes: Caco-2 cell activation, Caco-2 monolayer cell cultivation, resistance value measurement, effect of time to gabapentin transmission rate, and comparison of transmission rate between gabapentin and gabapentin derivatives. In constructing the Caco-2 monolayer, the original cell line is the human colon adenocarcinoma cell (Caco-2), and its data sheet is listed as Table 2.
The Caco-2 cell is activated appropriately, and seeded in the transwell at 37° C. in an amount of about 1×10^5. The aliquot is cultivated in 5% CO2 at 37° C. and replaced with a fresh medium every 3 to 4 days, and then the monolayer cell is obtained by the 21 days cultivation. The integrity of the Caco-2 cell is further characterized by tissue section and resistance value measurement.
HPLC Analysis: Intersil ODS-3V 250*4.6 mm column, Solvent: MeOH/H2O=10:90 to 70:30 with 0.1% of NH4OAc, Flow rate=1.0 ml/min, ELSD: Evaporative Light Scattering Detector. Every derivative has been repeated for 3 times in analysis, 4 hr later, the sample is analyzed for the transmission rate and then averaged to account its transmission fold.

[1] = Oral drug absorption test in rats: gabapentin concentration in blood/serum by LC/MS/MS; format: in vivo, rat; settings: 300 mg/kg, ratio of AUC to Gabapentin HCl
Protocol: Rats (3 male, Winstar rats) are fed with 300 mg/kg dosage of compounds. Plural blood samples are collected at different times (0, 0.5, 1, 2, 3, 8, 12, 24 hrs). The blood samples are centrifuged, and the concentration of gabapentin in the serum are analyzed with LC/MS/MS (MRM method, limitation of instruments 0.005 μg/mL).
After reducing the dosage, compounds of gabapentin prodrugs were selected for further pharmacodynamic analysis. The rats are fed with 50 mg/kg dosage of gabapentin equivalency individually.

[2] = Caco-2 monolayer, 4 h, mean of 3 repeats, HPLC-ELSD
[3] = ratio of Caco-2 transmission rate to GBP.HCl, 4 h

SMILES | Caco-2 Cell Mean Total Transmission rate 4 h (%) (Caco-2 cell; human, Caco-2, 4 h) | gbp-prodrug/gbp Transmission Fold (Caco-2 cell; human, Caco-2, 4 h) [Fold] | AUC value relative to Gabapentin HCl [1] [times] | Caco-2 Cell Mean Total Transmission rate 4 h (%) (Caco-2 cell; [2]) | gbp-prodrug/gbp Transmission Fold (Caco-2 cell; [3]) [Fold]
CCOC(=O)CC1(CNC(=O)CC2(CN)CCCCC2)CCCCC1 [Embodiment 2, (1-{[2-(1-Aminomethyl-cyclohexyl)-acetylamino]-methyl}-cyclohexyl)-acetic acid ethyl ester] | 10.25 | 9.3 | 14.9 | – | –
CCOC(=O)CC1(CNC(=O)C2CCC(CN)CC2)CCCCC1 (stereo not shown) [Embodiment 19, (1-{[(4-Aminomethyl-cyclohexanecarbonyl)-amino]-methyl}-cyclohexyl)-acetic acid ethyl ester] | 11.14 | 10.1 | – | – | –
CCOC(=O)CC1(CNC(=O)C(C)N)CCCCC1 (stereo not shown) [Embodiment 28, {1-[(2-Amino-propionylamino)-methyl]-cyclohexyl}-acetic acid ethyl ester] | 8.11 | 7.4 | – | – | –
NCC1(CC(=O)N2CCCC2C(=O)NCC2(CC(=O)O)CCCCC2)CCCCC1 (stereo not shown) [Embodiment 23, {1-[({1-[2-(1-Aminomethyl-cyclohexyl)-acetyl]-pyrrolidine-2-carbonyl}-amino)-methyl]-cyclohexyl}-acetic acid] | – | – | – | 10.73 | 9.8
CCOC(=O)CC1(CNC(=O)C(CC(C)C)NC(=O)CC2(CN)CCCCC2)CCCCC1 (stereo not shown) [Embodiment 20, [1-({2-[2-(1-Aminomethyl-cyclohexyl)-acetylamino]-4-methyl-pentanoylamino}-methyl)-cyclohexyl]-acetic acid ethyl ester] | – | – | – | 12.22 | 11.1
CCOC(=O)CC1(CNC(=O)C(Cc2ccccc2)NC(=O)CC2(CN)CCCCC2)CCCCC1 (stereo not shown) [Embodiment 22, [1-({2-[2-(1-Aminomethyl-cyclohexyl)-acetylamino]-3-phenyl-propionylamino}-methyl)-cyclohexyl]-acetic acid ethyl ester] | – | – | – | 9.26 | 8.4
CCOC(=O)C(Cc1ccccc1)NC(=O)C(C)NC(=O)CC1(CN)CCCCC1 (stereo not shown) [Embodiment 12, 2-{2-[2-(1-Aminonethyl-cyclohexyl)-acetylamino]-propionylamino}-3-phenyl-propionic acid ethyl ester] | – | – | – | 2.83 | 2.6
CC(C)(C)OC(=O)NCC1(CC(=O)NCC2(CC(=O)O)CCCCC2)CCCCC1 [Embodiment 6, [1-({2-[1-(tert-Butoxycarbonylamino-methyl)-cyclohexyl]-acetylamino}-methyl)-cyclohexyl]-acetic acid] | – | – | – | 27 | 24.5
CCOC(=O)CC1(CNC(=O)C(NC(=O)CC2(CN)CCCCC2)c2ccccc2)CCCCC1 (stereo not shown) [Embodiment 21, [1-({2-[2-(1-Aminomethyl-cyclohexyl)-acetylamino]-2-phenyl-acetylamino}-methyl)-cyclohexyl]-acetic acid ethyl ester] | – | – | – | 8.58 | 7.8
